Measurements taken from publication PMC7664879, “Discovery of 12O—A Novel Oral Multi-Kinase Inhibitor for the Treatment of Solid Tumor” (Molecules, 2020).

Key:
PDGFR-alfa(h) = molecular target: T1, PDGFR-alfa(h) (Homo sapiens, UniProt P16234); assay: Kinase inhibition assay (Eurofins KinaseProfiler); format: biochemical; settings: ATP at Km
T1 construct: purchased Eurofins (KinaseProfiler service)
Protocol: (§1) Kinase inhibition profiles were determined using KinaseProfiler services provided by Eurofins, and ATP concentrations used are the Km of corresponding kinases.
(§2) PDGFR-alfa(h) [PDGFR-beta(h)] was incubated with 8 mM MOPS pH 7.0, 0.2 mM EDTA, 0.1 mg/mL poly(Glu, Tyr) 4:1, 10 mM MnCl2, 10 mM MgAcetate and [gamma-33P]-ATP.
(§3) All the reactions above were initiated by the addition of the Mg/ATP mix. After incubation for 40 min at room temperature, the reaction was stopped by the addition of phosphoric acid to a concentration of 0.5%. An amount of 10 µL of the reaction was then spotted onto a P30 filtermat and washed four times for 4 min in 0.425% phosphoric acid and once in methanol prior to drying and scintillation counting.

PDGFR-beta(h) = molecular target: T2, PDGFR-beta(h) (Homo sapiens, UniProt P09619); assay: Kinase inhibition assay (Eurofins KinaseProfiler); format: biochemical; settings: ATP at Km
T2 construct: purchased Eurofins (KinaseProfiler service)
T2 sequence (P09619 33-1106): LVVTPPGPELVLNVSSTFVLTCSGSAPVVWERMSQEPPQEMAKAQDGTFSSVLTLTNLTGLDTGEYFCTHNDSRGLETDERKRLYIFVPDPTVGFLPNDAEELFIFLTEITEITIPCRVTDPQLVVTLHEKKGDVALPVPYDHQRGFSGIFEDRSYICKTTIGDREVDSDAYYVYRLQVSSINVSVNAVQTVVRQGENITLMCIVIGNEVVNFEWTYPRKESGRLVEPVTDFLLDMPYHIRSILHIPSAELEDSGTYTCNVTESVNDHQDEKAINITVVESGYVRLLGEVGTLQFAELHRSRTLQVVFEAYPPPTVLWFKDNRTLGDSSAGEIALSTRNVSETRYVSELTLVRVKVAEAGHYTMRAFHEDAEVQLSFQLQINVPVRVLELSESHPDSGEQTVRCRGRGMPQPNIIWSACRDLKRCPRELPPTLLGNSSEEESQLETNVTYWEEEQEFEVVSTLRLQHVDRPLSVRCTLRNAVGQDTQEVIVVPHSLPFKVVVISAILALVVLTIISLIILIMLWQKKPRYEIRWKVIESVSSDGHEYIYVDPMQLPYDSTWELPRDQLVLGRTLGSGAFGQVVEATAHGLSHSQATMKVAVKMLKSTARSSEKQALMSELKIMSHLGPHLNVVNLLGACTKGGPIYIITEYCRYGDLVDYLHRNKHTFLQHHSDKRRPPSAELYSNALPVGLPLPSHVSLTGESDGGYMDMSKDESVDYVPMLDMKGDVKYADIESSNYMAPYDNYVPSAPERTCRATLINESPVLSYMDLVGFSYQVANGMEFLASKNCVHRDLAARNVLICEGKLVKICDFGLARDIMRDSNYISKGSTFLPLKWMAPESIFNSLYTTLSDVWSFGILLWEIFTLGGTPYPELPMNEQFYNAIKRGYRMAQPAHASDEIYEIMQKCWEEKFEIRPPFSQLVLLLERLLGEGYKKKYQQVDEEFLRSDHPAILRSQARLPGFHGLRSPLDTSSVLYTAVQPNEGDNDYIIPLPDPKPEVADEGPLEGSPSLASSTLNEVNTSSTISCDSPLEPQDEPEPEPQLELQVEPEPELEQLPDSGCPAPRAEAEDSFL
Protocol: as §1, §2, §3

OVCAR-5 = assay: CCK-8 cell growth inhibition, OVCAR-5; format: cell-based, human; settings: Homo sapiens, OVCAR-5; ovarian cancer; CCK-8 assay, 72-h incubation
Protocol: (§4) In vitro anticancer screening of all newly synthesized compounds towards human solid tumor cells, cervical (SiHa) and ovarian (SKOV3) cancer cell lines, was carried out by standard CCK-8 assay with cisplatin as the positive control, as cisplatin is one of the most used chemotherapy drugs. […] The compound was further evaluated in a dose response study against a panel of solid tumor cells, including cervical cancer cell lines (SiHa and HeLa), ovarian cancer cell lines (SKOV3 and OVCAR-5), breast cancer cell lines (4T1 and MCF-7), lung cancer cell lines (A549 and H460) to test cytotoxic activity. The IC50 values were summarized in Table 2, including the cytotoxic activity of the cisplatin used as reference compound.
(§5) The viability of cells as determined using the CCK8 assay method. Cells were seeded (2000–3000 cells per well) in 96-well plates. After incubation for 24 h in serum-containing media, the cells were treated with drugs at different concentrations diluted with culture medium for 72 h at 37 °C with a 5% CO2 atmosphere. […] Finally, absorbance values of test wells (AS), control wells (AC) and blank wells (Ab) at 450 nm were read using the Microplate Reader (Promega, WI). Inhibition ratios were calculated as follows: [(AC − AS)/ (AC−Ab)] × 100%. IC50 values were calculated using GraphPad software.

SKOV3 = assay: CCK-8 cell growth inhibition, SKOV3; format: cell-based, human; settings: Homo sapiens, SK-OV-3; CCK-8 assay, 72-h incubation; read-out: Cell Lines IC50 SKOV3
Protocol: as §4
(§6) The viability of cells as determined using the CCK8 assay method. Cells were seeded (2000–3000 cells per well) in 96-well plates. After incubation for 24 h in serum-containing media, the cells were treated with drugs at different concentrations diluted with culture medium for 72 h at 37 °C with a 5% CO2 atmosphere. Then, 10 μL CCK8 regent (Promega, WI) was added to each well, and the plates were incubated for 1–4 h at 37 °C. Finally, absorbance values of test wells (AS), control wells (AC) and blank wells (Ab) at 450 nm were read using the Microplate Reader (Promega, WI). Inhibition ratios were calculated as follows: [(AC − AS)/ (AC−Ab)] × 100%. IC50 values were calculated using GraphPad software.

A549 = assay: CCK-8 cell growth inhibition, A549; format: cell-based, human; settings: Homo sapiens, A549; lung cancer; CCK-8 assay, 72-h incubation
Protocol: as §4, §5

HeLa = assay: CCK-8 cell growth inhibition, HeLa; format: cell-based, human; settings: Homo sapiens, HeLa; cervical cancer; CCK-8 assay, 72-h incubation
Protocol: as §4, §5

H460 = assay: CCK-8 cell growth inhibition, H460; format: cell-based, human; settings: Homo sapiens, NCI-H460; lung cancer; CCK-8 assay, 72-h incubation
Protocol: as §4, §5

CDK3/cyclinE(h) = molecular target: T3, CDK3/cyclinE(h) (Homo sapiens, UniProt Q00526); assay: Kinase inhibition assay (Eurofins KinaseProfiler); format: biochemical; settings: ATP at Km
T3 construct: purchased Eurofins (KinaseProfiler service)
T3 sequence (Q00526 whole entry): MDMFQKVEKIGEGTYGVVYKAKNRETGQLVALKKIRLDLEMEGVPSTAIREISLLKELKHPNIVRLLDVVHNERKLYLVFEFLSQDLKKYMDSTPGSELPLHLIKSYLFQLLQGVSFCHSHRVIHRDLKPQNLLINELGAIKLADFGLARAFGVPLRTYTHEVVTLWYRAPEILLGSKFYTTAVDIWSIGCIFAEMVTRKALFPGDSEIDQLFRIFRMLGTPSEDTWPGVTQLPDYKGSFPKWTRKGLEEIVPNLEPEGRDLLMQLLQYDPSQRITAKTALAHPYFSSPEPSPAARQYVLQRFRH
T3 sequence (P24864 whole entry partner): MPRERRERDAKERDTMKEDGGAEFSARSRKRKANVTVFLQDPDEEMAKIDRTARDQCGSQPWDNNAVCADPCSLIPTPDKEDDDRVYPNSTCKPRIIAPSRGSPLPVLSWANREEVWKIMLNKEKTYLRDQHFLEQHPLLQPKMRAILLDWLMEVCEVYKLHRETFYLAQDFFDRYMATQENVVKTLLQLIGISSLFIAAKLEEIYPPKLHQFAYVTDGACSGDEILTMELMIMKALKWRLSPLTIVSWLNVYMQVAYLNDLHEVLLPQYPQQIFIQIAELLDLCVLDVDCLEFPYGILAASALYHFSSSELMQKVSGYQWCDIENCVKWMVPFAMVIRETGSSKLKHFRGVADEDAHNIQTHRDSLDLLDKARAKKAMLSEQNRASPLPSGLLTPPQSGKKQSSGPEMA
Protocol: as §1
(§7) CDK1/cyclinB (h) (CDK2/cyclinA (h), CDK3/cyclinE (h), CDK4/CyclinD(h), CDK5/p25 (h), CDK6/cyclinD3 (h)) were incubated with 8 mM MOPS pH 7.0, 0.2 mM EDTA, 0.1 mg/mL histone H1, 10 mM MgAcetate and [gamma-33P]-ATP (specific activity and concentration as required).
as §3

CDK5/p25(h) = molecular target: T4, CDK5/p25(h) (Homo sapiens, UniProt Q00535); assay: Kinase inhibition assay (Eurofins KinaseProfiler); format: biochemical; settings: ATP at Km
T4 construct: purchased Eurofins (KinaseProfiler service)
T4 sequence (Q00535 whole entry): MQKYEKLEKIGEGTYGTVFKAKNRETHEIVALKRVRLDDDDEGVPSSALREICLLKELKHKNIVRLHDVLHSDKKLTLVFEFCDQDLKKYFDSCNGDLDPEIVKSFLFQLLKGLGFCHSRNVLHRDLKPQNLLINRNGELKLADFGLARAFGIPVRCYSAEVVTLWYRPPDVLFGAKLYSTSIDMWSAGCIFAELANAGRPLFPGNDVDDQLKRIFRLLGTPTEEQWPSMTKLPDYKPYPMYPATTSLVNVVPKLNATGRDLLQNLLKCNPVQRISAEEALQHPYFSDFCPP
T4 sequence (Q15078 99-307 partner limits assumed): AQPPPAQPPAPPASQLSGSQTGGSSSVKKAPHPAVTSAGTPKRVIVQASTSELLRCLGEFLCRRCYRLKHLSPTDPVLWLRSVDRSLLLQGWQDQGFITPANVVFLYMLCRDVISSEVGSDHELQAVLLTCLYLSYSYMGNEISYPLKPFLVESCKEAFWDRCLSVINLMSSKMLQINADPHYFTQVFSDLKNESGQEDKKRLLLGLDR
Protocol: as §1, §7, §3

CDK2/cyclinA(h) = molecular target: T5, CDK2/cyclinA(h) (Homo sapiens, UniProt P24941); assay: Kinase inhibition assay (Eurofins KinaseProfiler); format: biochemical; settings: ATP at Km
T5 construct: purchased Eurofins (KinaseProfiler service)
Protocol: as §1, §7, §3

CDK6/cyclinD3(h) = molecular target: T6, CDK6/cyclinD3(h) (Homo sapiens, UniProt Q00534); assay: Kinase inhibition assay (Eurofins KinaseProfiler); format: biochemical; settings: ATP at Km
T6 construct: purchased Eurofins (KinaseProfiler service)
Protocol: as §1, §7, §3

CDK1/cyclinB(h) = molecular target: T7, CDK1/cyclinB(h) (Homo sapiens, UniProt P06493); assay: Kinase inhibition assay (Eurofins KinaseProfiler); format: biochemical; settings: ATP at Km
T7 construct: purchased Eurofins (KinaseProfiler service)
T7 sequence (P06493 whole entry): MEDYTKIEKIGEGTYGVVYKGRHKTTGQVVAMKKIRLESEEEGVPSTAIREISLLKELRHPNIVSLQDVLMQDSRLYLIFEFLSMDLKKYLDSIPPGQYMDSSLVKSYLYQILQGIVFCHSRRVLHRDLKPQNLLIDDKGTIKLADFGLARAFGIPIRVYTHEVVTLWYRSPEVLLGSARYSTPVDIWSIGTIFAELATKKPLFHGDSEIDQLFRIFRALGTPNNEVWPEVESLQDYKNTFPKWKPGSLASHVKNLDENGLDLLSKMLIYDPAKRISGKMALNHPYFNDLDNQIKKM
T7 sequence (P14635 whole entry partner): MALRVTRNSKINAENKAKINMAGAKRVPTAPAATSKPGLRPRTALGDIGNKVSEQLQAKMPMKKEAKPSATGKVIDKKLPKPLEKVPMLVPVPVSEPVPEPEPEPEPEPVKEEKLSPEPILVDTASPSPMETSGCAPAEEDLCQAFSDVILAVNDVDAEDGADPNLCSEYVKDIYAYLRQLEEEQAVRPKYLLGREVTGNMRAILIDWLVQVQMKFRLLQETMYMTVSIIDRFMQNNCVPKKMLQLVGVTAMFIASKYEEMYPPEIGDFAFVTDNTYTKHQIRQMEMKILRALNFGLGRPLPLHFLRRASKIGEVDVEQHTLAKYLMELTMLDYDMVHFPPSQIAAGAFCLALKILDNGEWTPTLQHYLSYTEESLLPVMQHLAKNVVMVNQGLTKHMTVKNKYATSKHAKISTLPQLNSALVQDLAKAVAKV
Protocol: as §1, §7, §3

CDK4/cyclinD(h) = molecular target: T8, CDK4/cyclinD(h) (Homo sapiens, UniProt P11802); assay: Kinase inhibition assay (Eurofins KinaseProfiler); format: biochemical; settings: ATP at Km
T8 construct: purchased Eurofins (KinaseProfiler service)
T8 sequence (P11802 whole entry): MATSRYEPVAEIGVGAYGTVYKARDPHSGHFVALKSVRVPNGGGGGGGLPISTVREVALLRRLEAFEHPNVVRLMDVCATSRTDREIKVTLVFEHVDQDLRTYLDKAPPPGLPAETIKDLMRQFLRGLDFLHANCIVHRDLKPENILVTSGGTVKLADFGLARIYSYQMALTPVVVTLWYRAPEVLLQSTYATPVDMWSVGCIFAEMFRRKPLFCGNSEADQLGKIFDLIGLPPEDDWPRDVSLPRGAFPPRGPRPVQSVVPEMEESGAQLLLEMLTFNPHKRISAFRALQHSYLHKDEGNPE
T8 sequence (P30281 whole entry partner): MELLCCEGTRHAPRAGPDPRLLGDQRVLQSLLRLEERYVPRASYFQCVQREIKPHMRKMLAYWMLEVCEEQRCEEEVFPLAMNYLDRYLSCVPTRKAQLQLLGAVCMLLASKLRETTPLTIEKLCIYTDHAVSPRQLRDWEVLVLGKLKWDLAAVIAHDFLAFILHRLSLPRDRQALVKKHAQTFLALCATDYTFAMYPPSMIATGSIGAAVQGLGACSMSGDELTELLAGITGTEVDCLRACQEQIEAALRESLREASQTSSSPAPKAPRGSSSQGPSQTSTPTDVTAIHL
Protocol: as §1, §7, §3

SiHa cells = assay: Colony formation assay, SiHa; format: cell-based, human
From the text: (§8) Colony formation assay assesses the effect of a therapy on clonogenic survival which is one of the most important parameters of therapy efficacy in oncology. […] We also performed colony formation assay in SKOV3 cells at concentrations according to IC50 values to confirm the result (Figure S3).
(§9) Cells treated with indicated compounds or vehicle were washed with PBS, trypsinized, and reseeded into 6-well plates at 500–1000 cells per well. The colonies were allowed to form for 10–15 days. At the end of the culture, cells were washed with PBS, fixed with methanol for 30 min, then stained with 0.5% crystal violet overnight. After careful washing, the images were taken.

SiHa = assay: CCK-8 cell growth inhibition, SiHa; format: cell-based, human; settings: Homo sapiens, SiHa; CCK-8 assay, 72-h incubation; read-out: Cell Lines IC50 SiHa
Protocol: as §4, §6

SKOV3 cells = assay: Colony formation assay, SKOV3; format: cell-based, human
From the text: as §8, §9

MCF-7 = assay: CCK-8 cell growth inhibition, MCF-7; format: cell-based, human; settings: Homo sapiens, MCF7; breast cancer; CCK-8 assay, 72-h incubation
Protocol: as §4, §5

Src(1-530)(h) = molecular target: T9, Src(1-530)(h) (Homo sapiens, UniProt P12931); assay: Kinase inhibition assay (Eurofins KinaseProfiler); format: biochemical; settings: ATP at Km
T9 construct: Src (1-530) (h) was incubated with; purchased Eurofins (KinaseProfiler service)
Protocol: as §1
Src (1-530) (h) was incubated with 8 mM MOPS pH 7.0, 0.2 mM EDTA, 500 uM GGEEEEYFELVKKKK, 10 mM MgAcetate and [gamma-33P]-ATP.
as §3

4T1 = assay: CCK-8 cell growth inhibition, 4T1; format: cell-based; settings: Mus musculus, 4T1; breast cancer; CCK-8 assay, 72-h incubation
Protocol: as §4, §5

T1 sequence (P16234 24-1089): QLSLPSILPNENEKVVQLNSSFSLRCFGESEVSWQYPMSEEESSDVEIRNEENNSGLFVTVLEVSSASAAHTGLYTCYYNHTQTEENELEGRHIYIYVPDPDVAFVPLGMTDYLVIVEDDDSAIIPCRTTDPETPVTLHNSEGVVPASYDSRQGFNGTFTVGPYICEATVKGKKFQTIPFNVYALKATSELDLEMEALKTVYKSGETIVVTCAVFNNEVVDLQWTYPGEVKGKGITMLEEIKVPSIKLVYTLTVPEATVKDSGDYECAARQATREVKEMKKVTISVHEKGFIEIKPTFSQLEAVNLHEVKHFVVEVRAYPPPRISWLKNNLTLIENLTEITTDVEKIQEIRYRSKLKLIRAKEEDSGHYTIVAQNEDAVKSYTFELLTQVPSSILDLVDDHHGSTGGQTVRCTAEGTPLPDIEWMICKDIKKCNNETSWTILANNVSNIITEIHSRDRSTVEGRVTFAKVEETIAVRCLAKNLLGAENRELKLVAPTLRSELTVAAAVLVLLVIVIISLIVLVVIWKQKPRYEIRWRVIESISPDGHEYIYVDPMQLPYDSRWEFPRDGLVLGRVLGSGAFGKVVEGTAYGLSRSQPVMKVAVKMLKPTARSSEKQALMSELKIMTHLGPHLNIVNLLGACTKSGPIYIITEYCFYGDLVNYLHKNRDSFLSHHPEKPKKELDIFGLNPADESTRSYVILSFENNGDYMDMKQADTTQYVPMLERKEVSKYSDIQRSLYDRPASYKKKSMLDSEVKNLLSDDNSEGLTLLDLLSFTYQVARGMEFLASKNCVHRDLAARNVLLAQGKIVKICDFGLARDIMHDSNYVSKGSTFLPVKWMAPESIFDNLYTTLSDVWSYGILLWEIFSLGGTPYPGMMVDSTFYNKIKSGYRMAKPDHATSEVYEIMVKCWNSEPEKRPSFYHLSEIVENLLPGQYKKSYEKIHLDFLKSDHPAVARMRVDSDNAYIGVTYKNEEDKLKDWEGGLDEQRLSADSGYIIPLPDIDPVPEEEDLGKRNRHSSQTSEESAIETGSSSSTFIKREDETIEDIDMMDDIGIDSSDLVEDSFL

CC(C)n1nnc2ccc(-c3nc(Nc4ccc(CNC(=O)C5(C(=O)Nc6ccccc6)CC5)cc4)ncc3F)cc21 [12O]
inhibition at 1 µM (PDGFR-alfa(h)): -1%
inhibition at 1 µM (PDGFR-beta(h)): 12%
IC50 (OVCAR-5): 52 nM
IC50 (SKOV3): 29 nM
IC50 (A549): 35 nM
IC50 (HeLa): 24 nM
IC50 (H460): 41 nM
inhibition at 1 µM (CDK3/cyclinE(h)): 86%
inhibition at 1 µM (CDK5/p25(h); 1 µM): 99%
IC50 (CDK5/p25(h)): 6 nM
inhibition at 1 µM (CDK2/cyclinA(h); 1 µM): 99%
IC50 (CDK2/cyclinA(h)): 5 nM
inhibition at 1 µM (CDK6/cyclinD3(h)): 74%
inhibition at 1 µM (CDK1/cyclinB(h); 1 µM): 98%
IC50 (CDK1/cyclinB(h)): 10 nM
inhibition at 1 µM (CDK4/cyclinD(h); 1 µM): 91%
IC50 (CDK4/cyclinD(h)): 157 nM
formation of colonies (SiHa cells): dose-dependently decreased
IC50 (SiHa): 9 nM
proliferation by colony formation assay (SKOV3 cells): effectively inhibited
IC50 (MCF-7): 10 nM
inhibition at 1 µM (Src(1-530)(h)): 46%
IC50 (4T1): 68 nM
